± gives the standard deviation of the averaged measurements.
System: SK-N-MM (SKNMM-MYCN, doxycycline-inducible MYCN)
Experiment: area under dose-response curve (CellTiter-Glo viability normalised to plate controls) (AUC (arbitrary units)); higher = more loss of viability; extreme values may be limits of the assay
How it was run: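 For each compound, area under the dose-response curve was calculated from log2 CellTiter-Glo luminescence normalised to the positive and negative controls on each plate. The cells were SK-N-MM with doxycycline-inducible MYCN, plated at 1250 cells/100 μL in 96-well plates and moved to medium with or without doxycycline about 24 h later. Two days after that, 10-point 1:3 dilution series were pin-transferred (890-fold stock dilution), with re-dosing on day 4 and readout 3 or 8 days after drugging.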

[1] = MYCN induction (doxycycline): +doxycycline (MYCN induced), time after drugging: 3 days
[2] = MYCN induction (doxycycline): +doxycycline (MYCN induced), time after drugging: 8 days
[3] = MYCN induction (doxycycline): no doxycycline (MYCN not induced), time after drugging: 3 days
[4] = MYCN induction (doxycycline): no doxycycline (MYCN not induced), time after drugging: 8 days

| SMILES | area under dose-response curve [1] | area under dose-response curve [2] | area under dose-response curve [3] | area under dose-response curve [4] |
| --- | --- | --- | --- | --- |
| CO[C@H]1C[C@@H]2CC[C@@H](C)[C@@](O)(O2)C(=O)C(=O)N2CCCC[C@H]2C(=O)O[C@H]([C@H](C)C[C@@H]2CC[C@@H](O)[C@H](OC)C2)CC(=O)[C@H](C)/C=C(\C)[C@@H](O)[C@@H](OC)C(=O)[C@H](C)C[C@H](C)/C=C/C=C/C=C/1C [SIROLIMUS] | 18.2 | 7.23 | 41.5 | 24.7 |
| O=c1[nH]cc(F)c(=O)[nH]1 [5-FLUOROURACIL] | 12.1 | 24.8 | 6.6 | 25 |
| CN(N=O)C(=O)N[C@H]1C(O)O[C@H](CO)[C@@H](O)[C@@H]1O (mixture of isomers) [STREPTOZOSIN] | 0 | 0 | 0 | – |
| COc1ccc2c(c1OC)C(=O)O[C@@H]2[C@H]1c2c(cc3c(c2OC)OCO3)CCN1C [NOSCAPINE] | 0.556 | 19.8 | 0 | – |
| C=C1[C@@H](O)[C@@H]2O[C@]3(CC[C@H](/C=C/[C@@H](C)[C@@H]4CC(C)=C[C@@]5(O[C@H](C[C@@](C)(O)C(=O)O)CC[C@H]5O)O4)O3)CC[C@H]2O[C@@H]1[C@@H](O)C[C@H](C)[C@H]1O[C@@]2(CCCCO2)CC[C@H]1C [OKADAIC ACID] | 204 | 277 | 167 | 266 |
| COc1cc([C@@H]2c3cc4c(cc3[C@@H](O[C@@H]3O[C@@H]5CO[C@@H](C)O[C@H]5[C@H](O)[C@H]3O)[C@H]3COC(=O)[C@H]23)OCO4)cc(OC)c1O [ETOPOSIDE] | 42.1 | 114 | 18.8 | 43.1 |
| CCC(C)n1ncn(-c2ccc(N3CCN(c4ccc(OCC5COC(Cn6cncn6)(c6ccc(Cl)cc6Cl)O5)cc4)CC3)cc2)c1=O (centres undefined) [ITRACONAZOLE] | 13.1 | 26.1 | 11.4 | 26.1 |
| Cc1cnc(NC(=O)Nc2cc(Br)c(C)cc2OC[C@@H]2CNCCO2)cn1 [RABUSERTIB] | 89.5 | 171 | 31 | 95.5 |
| CCOc1cc(C(C)(C)C)ccc1C1=N[C@@](C)(c2ccc(Cl)cc2)[C@@](C)(c2ccc(Cl)cc2)N1C(=O)N1CCN(CCCS(C)(=O)=O)CC1 [RG7112] | 0 | 0 | 0 | 0 |
| N[C@H](CCC(=O)N[C@@H](Cc1c[nH]c2ccccc12)C(=O)O)C(=O)O [GOLOTIMOD] | – | 0 | 0 | 12.7 |
| CCN(CCO)CCCC(C)Nc1ccnc2cc(Cl)ccc12 (centres undefined) [HYDROXYCHLOROQUINE] | 0 | 0 | – | 0 |
| Cc1ncc(CNC(=O)N(CCCl)N=O)c(N)n1 [NIMUSTINE] | 0 | 0 | 0 | 0 |
| Cc1c(N)nc([C@H](CC(N)=O)NC[C@H](N)C(N)=O)nc1C(=O)N[C@H](C(=O)N[C@H](C)[C@@H](O)[C@H](C)C(=O)N[C@H](C(=O)NCCc1nc(-c2nc(C(=O)NCCC[S+](C)C)cs2)cs1)[C@@H](C)O)[C@@H](OC1OC(CO)C(O)C(O)C1OC1OC(CO)C(O)C(OC(N)=O)C1O)c1cnc[nH]1 (some centres undefined) [BLEOMYCIN] | 0 | 0 | 0 | 0 |
| N#CCNC(=O)c1ccc(-c2ccnc(Nc3ccc(N4CCOCC4)cc3)n2)cc1 | 40.7 | 79.9 | 0 | 42 |
| COc1cc2c(Oc3ccc(NC(=O)C4(C(=O)Nc5ccc(F)cc5)CC4)cc3F)ccnc2cc1OCCCN1CCOCC1 [FORETINIB] | 167 | 170 | 144 | 140 |
| CC1=C(/C=C/C(C)=C/C=C/C(C)=C/C(=O)O)C(C)(C)CCC1 [TRETINON] | – | 0.434 | 1.4 | 0 |
| CCC(=O)OCN1C(=O)C=CC1=O [MIRA-1] | – | – | – | 39 |

| SMILES | area under dose-response curve [1] | area under dose-response curve [2] | area under dose-response curve [3] | area under dose-response curve [4] |
| --- | --- | --- | --- | --- |
| C[C@@H](Oc1cc(-c2cnn(C3CCNCC3)c2)cnc1N)c1c(Cl)ccc(F)c1Cl [CRIZOTINIB] | 145 | 196 | 147 | 178 |
| C[C@H]1[C@H](OC(=O)CCC(=O)O)O[C@@H]2O[C@@]3(C)CC[C@H]4[C@H](C)CC[C@@H]1[C@@]24OO3 [ARTESUNATE] | 46.2 | 60 | 25.7 | 25.9 |
| CN(C)C/C=C/C(=O)Nc1cc2c(Nc3ccc(F)c(Cl)c3)ncnc2cc1O[C@H]1CCOC1 [AFATINIB] | 137 | 145 | 140 | 121 |
| CCc1ccc(CCOc2ccc(CC3SC(=O)NC3=O)cc2)nc1 (centres undefined) [PIOGLITAZONE] | 0 | 0 | 0 | 0 |
| O=C(Nc1ccc(Nc2nccc(Nc3cc(C4CCCC4)[nH]n3)n2)cc1)Nc1cccc(C(F)(F)F)c1 [CD532] | 175 | 211 | 156 | 191 |
| CNC(=O)c1ccccc1Sc1ccc2c(/C=C/c3ccccn3)n[nH]c2c1 [AXITINIB] | 52.9 | 109 | 32.4 | 69.7 |
| Cc1cn(-c2cc(NC(=O)c3ccc(C)c(Nc4nccc(-c5cccnc5)n4)c3)cc(C(F)(F)F)c2)cn1 [NILOTINIB] | 2.25 | 2.7 | 2.22 | 3.03 |
| CN(C)C/C=C/C(=O)Nc1ccc(C(=O)Nc2cccc(Nc3ncc(Cl)c(-c4c[nH]c5ccccc45)n3)c2)cc1 [THZ1] | 102 | 240 | 51.7 | 190 |
| Cc1cccc(-c2nn3c(c2-c2ccnc4ccc(C(N)=O)cc24)CCC3)n1 | 0 | 0 | 0 | 0 |
| CC(C)(C)c1nc(-c2cccc(NS(=O)(=O)c3c(F)cccc3F)c2F)c(-c2ccnc(N)n2)s1 [DABRAFENIB] | 9.29 | 0 | 14.1 | 10.8 |
| O=C(NC[C@H](O)CO)c1ccncc1Nc1ccc(I)cc1F [PIMASERTIB] | 42.1 | 125 | 0 | 105 |
| CC(C)C[C@H](NC(=O)[C@H](Cc1ccccc1)NC(=O)c1cnccn1)B(O)O [BORTEZOMIB] | 264 | 382 | 245 | 374 |
| O=C1c2c(O)ccc(O)c2C(=O)c2c(NCCNCCO)ccc(NCCNCCO)c21 [MITOXANTHRONE] | 166 | 325 | 119 | 258 |
| CCC1=C[C@@H]2CN(C1)Cc1c([nH]c3ccccc13)[C@@](C(=O)OC)(c1cc3c(cc1OC)N(C)[C@H]1[C@@](O)(C(=O)OC)[C@H](OC(C)=O)[C@]4(CC)C=CCN5CC[C@]31[C@@H]54)C2 [VINORELBINE] | 207 | 296 | 99.3 | 144 |
| COc1cc(Nc2ncc3c(n2)-c2ccc(Cl)cc2C(c2c(F)cccc2OC)=NC3)ccc1C(=O)O [ALISERTIB] | 51.1 ± 1.1 | 126 ± 21 | 15.2 ± 0.59 | 69.4 ± 30 |
| CC12CC3CC(C)(C1)CC(N)(C3)C2 [MEMANTINE] | 0 | 0 | 0 | 0 |
